≈ marks a conversion by molar mass, not a printed value.

Holding throughout (type): functional
The test system of assay [1] is Mycobacterium tuberculosis. Nature of the assay: Ratio of isoniazid MIC to compound MIC for extensively drug-resistant Mycobacterium tuberculosis.
For assay [2], the system named is Mycobacterium tuberculosis. Kind of assay: Ratio of rifampicin MIC to compound MIC for extensively drug-resistant Mycobacterium tuberculosis.
Assay [3] relates to Mycobacterium tuberculosis. Kind of assay: Antibacterial activity against drug-resistant Mycobacterium tuberculosis 926 by microbroth dilution method. Background: Broth dilution looks for growth in wells or tubes with falling amounts of substance.
The subject of assay [4] is Mycobacterium tuberculosis. Kind of assay: Antibacterial activity against drug-resistant Mycobacterium tuberculosis 164 by microbroth dilution method.

A word on the MIC: it is the lowest concentration that inhibits growth of the organism. A higher MIC goes with a need for much substance. Take `NCCC[C@H](N)CC(=O)NCCC[C@H](N)CC(=O)N[C@@H]1[C@H](O)[C@@H](OC(N)=O)[C@@H](CO)O[C@H]1NC1=N[C@@H]2C(=O)NC[C@@H](O)[C@H]2N1` [STREPTOTHRICIN E]: the Ratio in assay [1] and in assay [2] was 8 throughout. Further, the MIC is 0.25 µg/mL (≈ 0.396 µM) in assay [3] and 0.5 µg/mL (≈ 0.793 µM) in assay [4].
For `NCCC[C@H](N)CC(=O)NCCC[C@H](N)CC(=O)N[C@@H]1[C@H](O)[C@@H](O)[C@@H](COC(N)=O)O[C@H]1/N=C1\N[C@@H]2[C@H](O)CNC(=O)[C@H]2N1`, the MIC in assay [3] and in assay [4] was 8 µg/mL (≈ 12.7 µM) each time.
`NNC(=O)c1ccncc1` [ISONIAZID]: the minimum inhibitory concentration (MIC) in assay [3] and in assay [4] was 4 µg/mL (≈ 29.2 µM) in each case.
As for `CO[C@H]1/C=C/O[C@@]2(C)Oc3c(C)c(O)c4c(O)c(c(/C=N/N5CCN(C)CC5)c(O)c4c3C2=O)NC(=O)/C(C)=C\C=C\[C@H](C)[C@H](O)[C@@H](C)[C@@H](O)[C@@H](C)[C@H](OC(C)=O)[C@@H]1C` [RIFAMPIN], the results for the minimum inhibitory concentration (MIC) in assay [3] and in assay [4] were 16 µg/mL (≈ 19.4 µM) and 32 µg/mL (≈ 38.9 µM), respectively.

These data come from ChEMBL document CHEMBL2086335, “Three new 12-carbamoylated streptothricins from Streptomyces sp. I08A 1776” (2012).
